In paper PMC10119930, “Dual Molecules Targeting 5-HT6 and GABA-A Receptors as a New Approach to Combat Depression Associated with Neuroinflammation” (ACS Chemical Neuroscience, 2023):

What was measured:
HepG2 cells = assay: Hepatotoxicity assay, HepG2 cell viability (PrestoBlue, ToxiLight); format: cell-based, human; details: concentrations up to 50 μM; viability assay and ToxiLight
Experimental: (§1) Hepatotoxiticy assay was conducted according to our previously described procedures.[42]Cell culture and treatment: The human hepatocellular carcinoma (HepG2) cell line was acquired from ATCC, Manassas, USA (HB-8065), and maintained according to the manufacturer’s ATCC protocol. Cell culture conditions included a medium consisting of Dulbecco’s modified Eagle’s medium (DMEM, Merck), 10% fetal bovine serum, […], 100 IU/mL penicillin (acquired from ThermoFisher), humidified atmosphere containing 5% of carbon dioxide, temperature of 37 °C. The stock solution of the tested compound was prepared in DMSO (10 mM) and next diluted with buffered phosphate saline (PBS, Merck). Cell membrane damage was examined with the use of a ToxiLight bioassay (Lonza), rendering the manufacturer’s protocol described previously.[42] A culture medium containing 10% Triton X-100 (Merck) was used as the positive control of cell damage, while the negative control contained solely vehicle. After incubating for 5 min, the luminescence was examined with the plate reader POLARstar Omega (BMG Labtech). The results were expressed as a percentage of the positive control, which was defined as the percentage of dead cells relative to the control sample. Cell viability assay: The viability of cells was examined with the use of the PrestoBlue reagent (ThermoFisher) and protocol provided by the manufacturer. After incubating for 24 h with the examined compounds, one-tenth of the remaining medium volume was mixed with the reagent (PrestoBlue) in a microplate well. Following incubation at 37 °C during 15 min, the fluorescence (EX 530; EM 580 nm) was measured using the plate reader POLARstar Omega, (BMG Labtech). The viability values obtained are presented as a percentage of live cells relative to the DMSO (control sample). The GraphPad program was used to perform the statistical analysis. The mean values with their corresponding coefficient of variation (CV) were reported for all data. The differences between the groups were analyzed using one-way analysis of variance (ANOVA) followed by Dunnett’s multiple comparison tests as post hoc analysis. The statistical significance: p < 0.05.

[1] = as above; format: cell-based, human; details: human, HepG2 cells, 24 h, read-out: viability of cells, MEAN (percentage of control, live cells)
Experimental: as §1

5-HT6 receptor = 5-HT6 receptor (Homo sapiens, UniProt P50406); assay: Radioligand binding assay for 5-HT6 receptor ([3H]-LSD displacement); design: expressed in transfected cells; host or cells: HEK-293 (cryopreserved membranes); details: competitive replacement of [3H]-LSD; ±S.E.M.; read-out: 5-HT6R Ki
Sequence of 5-HT6 receptor (P50406 whole entry): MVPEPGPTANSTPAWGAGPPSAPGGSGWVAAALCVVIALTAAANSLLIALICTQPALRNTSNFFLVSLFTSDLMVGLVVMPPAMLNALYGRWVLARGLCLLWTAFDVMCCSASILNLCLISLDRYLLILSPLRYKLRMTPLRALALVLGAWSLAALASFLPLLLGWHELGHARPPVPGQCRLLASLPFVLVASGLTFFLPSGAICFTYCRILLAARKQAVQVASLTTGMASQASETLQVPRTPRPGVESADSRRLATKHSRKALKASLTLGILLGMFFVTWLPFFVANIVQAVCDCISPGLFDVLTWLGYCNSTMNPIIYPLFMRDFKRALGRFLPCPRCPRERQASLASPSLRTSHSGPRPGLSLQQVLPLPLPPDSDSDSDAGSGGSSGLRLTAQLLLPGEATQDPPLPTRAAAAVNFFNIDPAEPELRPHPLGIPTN
Experimental: To determine the affinity for 5-HT6, the cryopreserved membranes from HEK-293 cells stably transfected with the human recombinant 5-HT6 receptor were used.[40] Preparation of the tested compounds included preparation of stock solutions in DMSO (1 mM) and subsequent serial dilutions (10^–10–10^–5 M) of tested compounds in the appropriate buffer (50 mM Tris buffer, pH 7.4, 10 mM MgCl2, 0.5 mM ethylenediaminetetraacetic acid). The serial dilutions were acquired directly on a 96-well microplate. The reaction mix included 50 μL of appropriate concentration of tested molecule, 50 μL of [^3H]LSD 2.5/2.0 nM, and 150 μL of diluted membranes. The microplate containing the reaction mix was protected with a sealing tape and incubated for 60 min at 37 °C. Quenching of the reaction mixtire included: rapid filtration through UniFilter 96 GF/B filter microplate and rapid washes using 200 μL 50 mM assay buffer and vacuum manifold and 96-well pipettor. The collected microplates were dried overnight at 37 °C. The UniFilter bottoms were sealed, and then 30 μL of Betaplate Scint liquid scintillator (PerkinElmer) was added to each well. […] The obtained data were fit to a one-site curve-fitting equation using Prism 5 software (GraphPad Software), and the Ki values were determined using the Cheng–Prusoff equation. Radioligand binding was performed in duplicates.

Plasma stability assay = format: in vitro ADME, rat
Experimental: The quantitative HPLC analyses were acquired using Waters Alliance e2695 separations module (Waters, Milford, CT, USA) containing 2998 photodiode array (PDA), a detector (Waters, Milford, CT, USA), and the SpeedROD RP-18e 50–4.6 mm column (Merck, KGaA, Darmstadt, Germany). The temperature of the column was preserved at 30 °C. […] Each sample was injected at a volume of 10 μL in triplicate. […] The stock solutions were mixed with methanol and diluted, resulting in various solutions with concentrations ranging from 1.0 to 0.125 μg/mL. These solutions were then utilized to generate calibration curves by plotting AUC versus concentration in μg/mL. The examined molecules (2 mg) were dissolved in 1 mL of Dulbecco’s phosphate buffered saline (DPBS). The mixture was then continuously agitated at 22 °C for 24 h using a thermoshaker. Following this period, the mixtures were filtered through a cellulose acetate syringe filter (with a pore size of 0.22 μm), moved to a chromatographic vial, and analyzed. To quantify the investigated compounds, the areas beneath their respective peaks on DAD chromatograms were employed. Solubility was calculated using the calibration curves. Chemical stability assay: Stock solution of 16 in DMSO (10 mg/mL) was used. Next, 25 μL of stock solution was mixed with 975 μL of PBS (Dulbecco’s phosphate-buffered saline, Sigma, Poland). […] HPLC analyses were used to quantify the percentage of molecules that remained at each time point relative to the 0 min time point. Brain tissue stability assay: […] Then, 50 μL of the stock solution was combined with 50 μL of ice-cold 50 mM Tris-HCl buffer (pH 7.4) and 150 μL of brain homogenate (suspended in 20 volumes of 50 mM Tris-HCl buffer, ice cold, pH 7.4). The mix was then incubated at 37 °C and quenched at several time points. To terminate the reaction mixture, 250 μL of the appropriate reaction mixture was mixed with 1000 μL of MeCM in the Eppendorf Tube. Following 10 min of shaking (1500 rpm), samples were centrifuged (10 000 rpm, 10 min, 4 °C) and the acquired supernatant was collected. Before conducting HPLC analysis, the supernatant was filtered via a cellulose acetate syringe filter with a pore size of 0.45 μm and then transferred to a chromatographic vial. HPLC analysis was used to determine the percentage of the tested molecule remaining at each time point, relative to the 0 min time point. Plasma stability assay was performed as described previously.[45] Frozen rat plasma (Wistar) was thawed. […] The samples were collected at relative time points. The reaction was terminated by adding 1200 of μL acetonitrile/methanol mixture (50:50, v/v). The samples were centrifuge at 25 000 rpm for 10 min. HPLC analysis was used to determine the percentage of the tested molecule remaining at each time point relative to the 0 min time point. All the experiments were performed in duplicate.

Cc1c(OCc2ccccc2)cccc1N1CCN(CCOC(=O)CCCN)CC1.Cl.Cl [Compound 16, 1-(2-((4-Ammoniobutanoyl)oxy)ethyl)-4-(3-(benzyloxy)-2-methylphenyl)piperazin-1-ium Dichloride]
reduction of HepG2 viability (HepG2 cells): not significant reduction of viability
viability at 24 h, 1 µM ([1]; HepG2, 1 µM): 102%
viability at 24 h, 10 µM ([1]; HepG2, 10 µM): 104%
viability at 24 h, 50 µM ([1]; HepG2, 50 µM): 102%
viability at 24 h, 100 µM ([1]; HepG2, 100 µM): 14%
Ki (5-HT6 receptor): 16 ± 0.4 nM
% compound remaining (rat plasma, 37 °C) (Plasma stability assay; 0 min): 100 ± 0.1%
% compound remaining (rat plasma, 37 °C) (Plasma stability assay; 15 min): 97.21 ± 0.8%
% compound remaining (rat plasma, 37 °C) (Plasma stability assay; 30 min): 90.35 ± 1.4%
% compound remaining (rat plasma, 37 °C) (Plasma stability assay; 60 min): 79.65 ± 2.5%
% compound remaining (rat plasma, 37 °C) (Plasma stability assay; 120 min): 45.37 ± 2.2%
% compound remaining (rat plasma, 37 °C) (Plasma stability assay; 240 min): 21.46 ± 1.2%
